Test results published in PubChem BioAssay (NCI).
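Five concentrations, 48 hours, 96-well plates. At the TGI there is no net growth.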

Key:
Experiment in all cases: NCI anticancer screen, dose series, 48 h
[1] = tested on: HOP-62 NSCLC
[2] = tested on: MDA-MB-231 breast
[3] = tested on: SF-539 CNS
[4] = tested on: OVCAR-3 ovarian
[5] = tested on: HCT-15 colon
[6] = tested on: PC-3 prostate
[7] = tested on: BT-549 breast
[8] = tested on: OVCAR-4 ovarian
[9] = tested on: KM12 colon
[10] = tested on: IGROV1 ovarian

SMILES	TGI [1]	TGI [2]	TGI [3]	TGI [4]	TGI [5]	TGI [6]	TGI [7]	TGI [8]	TGI [9]	TGI [10]
O=C(NCCN(CCNC(=O)c1cccc(=O)n1O)CCN(CCNC(=O)c1cccc(=O)n1O)CCNC(=O)c1cccc(=O)n1O)c1cccc(=O)n1O	> 100 µM	> 100 µM	> 100 µM	> 100 µM	> 100 µM	> 100 µM	> 100 µM	> 100 µM	> 100 µM	> 100 µM
NCCC(N)C(=O)O (configuration not stated)	> 100 µM	> 100 µM	> 100 µM	> 100 µM	> 100 µM	> 100 µM	> 100 µM	> 100 µM	> 100 µM	> 100 µM
Cn1c(=O)c2c(nc(NCCCCl)n2CC(=O)O)n(C)c1=O	> 100 µM	> 100 µM	–	> 100 µM	> 100 µM	> 100 µM	> 100 µM	> 100 µM	> 100 µM	> 100 µM
Cc1c(C)c(C)c(-n2[nH]c(=O)n(C)c2=O)c(C)c1C	> 100 µM	> 100 µM	> 100 µM	> 100 µM	> 100 µM	> 100 µM	> 100 µM	–	> 100 µM	> 100 µM
Cc1ccc(C)n2c1nc1ccc3ccccc3c12	> 100 µM	–	> 100 µM	> 100 µM	> 100 µM	> 100 µM	> 100 µM	–	> 100 µM	> 100 µM
CCC(C)[C@H](NC(=O)N[C@H](C)c1ccccc1)C(=O)OC (some centres not stated)	> 100 µM	> 100 µM	> 100 µM	> 100 µM	> 100 µM	> 100 µM	> 100 µM	> 100 µM	> 100 µM	> 100 µM
CC(C)(C)OC(=O)n1cc(C2CNC(=O)C23CCC(=O)N3Cc2ccccc2)c2ccccc21 (configuration not stated)	57.2 µM	39.9 µM	38.4 µM	46.8 µM	–	79.3 µM	–	36.2 µM	78.3 µM	33.6 µM
c1ccc(CNc2c3c(nc4ccccc24)CCC3)cc1	25.6 µM	27.1 µM	36.7 µM	30.8 µM	68.4 µM	33.3 µM	37.1 µM	58.7 µM	40.3 µM	42.4 µM
CC(=O)O/C=C\OC1CCCC1(c1ccccc1)c1ccccc1 (configuration not stated)	25.4 µM	5.51 µM	3.68 µM	7.59 µM	4.7 µM	9.15 µM	4.66 µM	7.25 µM	12.9 µM	6.08 µM
O=C(c1ccc(Cl)cc1)c1ccc(OCC(=O)N2CCN(c3ccccc3)CC2)cc1	> 100 µM	–	> 100 µM	> 100 µM	> 100 µM	–	–	> 100 µM	> 100 µM	> 100 µM
S=C1c2ccccc2NC(=NC2CCCC2)C2CSCN12 (configuration not stated)	> 100 µM	> 100 µM	–	> 100 µM	> 100 µM	> 100 µM	> 100 µM	> 100 µM	> 100 µM	> 100 µM
CC(=O)C1CC(C)=CCC12C(=O)Nc1ccccc12 (configuration not stated)	> 100 µM	–	> 100 µM	> 100 µM	> 100 µM	–	–	> 100 µM	> 100 µM	> 100 µM
